Experimental data published in the kinase profiling compilation of Christmann-Franck et al. (2016).

Tests used:
Assay in all cases: radiometric filter-binding kinase assay
MAPK1 (human) = MAPK1 (human) (UniProt P28482)
[1] = test system: PAK2 (human), Q13177 [T402E]
EEF2K (human) = EEF2K (human) (UniProt O00418)
MAP2K2 (human) = MAP2K2 (human) (UniProt P36507)
CSNK1D (human) = CSNK1D (human) (UniProt P48730)
MAP3K1 (human) = MAP3K1 (human) (UniProt Q13233)
MAPK13 (human) = MAPK13 (human) (UniProt O15264)
MAPK13 (human), sequence (O15264 whole entry, looked up): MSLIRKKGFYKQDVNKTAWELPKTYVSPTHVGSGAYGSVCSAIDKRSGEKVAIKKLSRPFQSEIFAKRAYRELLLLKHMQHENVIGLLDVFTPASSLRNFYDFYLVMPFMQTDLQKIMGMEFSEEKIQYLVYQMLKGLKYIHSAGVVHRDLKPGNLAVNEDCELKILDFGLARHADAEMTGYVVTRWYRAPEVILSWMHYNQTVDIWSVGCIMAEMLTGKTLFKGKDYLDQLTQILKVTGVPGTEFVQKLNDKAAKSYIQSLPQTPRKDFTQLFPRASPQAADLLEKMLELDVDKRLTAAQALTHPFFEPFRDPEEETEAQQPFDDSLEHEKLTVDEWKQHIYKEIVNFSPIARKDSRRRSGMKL

FGFR1 (human) = FGFR1 (human) (UniProt P11362)
FGFR1 (human), sequence (P11362 whole entry, looked up): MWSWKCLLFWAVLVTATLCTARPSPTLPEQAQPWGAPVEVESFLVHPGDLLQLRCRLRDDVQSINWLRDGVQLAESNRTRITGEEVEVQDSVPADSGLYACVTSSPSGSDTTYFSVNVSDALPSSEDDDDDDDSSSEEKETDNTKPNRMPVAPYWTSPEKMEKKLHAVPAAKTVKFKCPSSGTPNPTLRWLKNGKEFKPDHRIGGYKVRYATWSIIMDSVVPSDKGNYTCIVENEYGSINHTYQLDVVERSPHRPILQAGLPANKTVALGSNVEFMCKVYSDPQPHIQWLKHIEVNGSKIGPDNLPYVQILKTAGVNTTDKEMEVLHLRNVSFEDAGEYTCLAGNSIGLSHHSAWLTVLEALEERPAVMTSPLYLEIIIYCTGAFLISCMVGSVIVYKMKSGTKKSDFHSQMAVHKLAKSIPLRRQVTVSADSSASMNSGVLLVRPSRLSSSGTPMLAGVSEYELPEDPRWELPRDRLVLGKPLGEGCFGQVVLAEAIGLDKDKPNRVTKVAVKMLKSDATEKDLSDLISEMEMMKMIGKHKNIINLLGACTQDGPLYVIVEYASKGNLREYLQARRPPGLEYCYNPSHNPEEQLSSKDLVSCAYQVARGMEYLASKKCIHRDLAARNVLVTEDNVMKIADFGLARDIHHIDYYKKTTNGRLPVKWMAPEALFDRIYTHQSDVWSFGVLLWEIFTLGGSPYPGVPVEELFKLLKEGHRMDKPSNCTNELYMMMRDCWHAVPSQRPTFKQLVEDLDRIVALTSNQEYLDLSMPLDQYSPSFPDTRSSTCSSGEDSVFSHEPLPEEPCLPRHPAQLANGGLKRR

CHEK1 (human) = CHEK1 (human) (UniProt O14757)
CHEK1 (human), sequence (O14757 whole entry, looked up): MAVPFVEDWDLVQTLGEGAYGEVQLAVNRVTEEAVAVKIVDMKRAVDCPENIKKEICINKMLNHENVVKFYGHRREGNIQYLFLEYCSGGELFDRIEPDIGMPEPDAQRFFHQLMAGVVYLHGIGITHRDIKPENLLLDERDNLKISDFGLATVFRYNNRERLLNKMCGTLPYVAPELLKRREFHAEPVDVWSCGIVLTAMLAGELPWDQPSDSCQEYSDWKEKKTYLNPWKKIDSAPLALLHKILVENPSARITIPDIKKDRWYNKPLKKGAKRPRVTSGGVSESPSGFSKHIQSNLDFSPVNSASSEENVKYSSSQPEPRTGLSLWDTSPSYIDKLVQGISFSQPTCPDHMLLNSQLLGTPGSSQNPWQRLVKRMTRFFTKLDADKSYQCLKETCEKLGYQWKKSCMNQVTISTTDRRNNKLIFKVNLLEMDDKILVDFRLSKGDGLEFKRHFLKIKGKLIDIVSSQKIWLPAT

MELK (human) = MELK (human) (UniProt Q14680)
GCK (human) = GCK (human) (UniProt Q12851)
SRC (human) = SRC (human) (UniProt P12931)
SRC (human), sequence (P12931 whole entry, looked up): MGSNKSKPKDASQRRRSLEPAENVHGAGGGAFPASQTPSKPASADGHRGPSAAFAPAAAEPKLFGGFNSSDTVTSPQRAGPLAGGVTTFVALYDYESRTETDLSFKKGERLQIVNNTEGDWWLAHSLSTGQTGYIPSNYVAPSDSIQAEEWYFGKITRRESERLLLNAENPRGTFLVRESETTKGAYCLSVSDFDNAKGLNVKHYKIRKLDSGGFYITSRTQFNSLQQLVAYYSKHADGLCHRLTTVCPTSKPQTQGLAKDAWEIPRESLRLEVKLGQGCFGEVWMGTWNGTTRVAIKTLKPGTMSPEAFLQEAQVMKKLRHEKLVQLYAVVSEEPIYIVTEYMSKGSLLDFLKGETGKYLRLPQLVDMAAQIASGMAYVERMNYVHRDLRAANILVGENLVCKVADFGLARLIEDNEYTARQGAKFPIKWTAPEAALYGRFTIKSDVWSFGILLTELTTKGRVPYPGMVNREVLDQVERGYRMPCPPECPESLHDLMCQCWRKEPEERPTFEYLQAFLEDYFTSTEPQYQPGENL

EPHB4 (human) = EPHB4 (human) (UniProt P54760)
IGF1R (human) = IGF1R (human) (UniProt P08069)
MYLK (human) = MYLK (human) (UniProt Q15746)
MYLK (human), sequence (Q15746 whole entry, looked up): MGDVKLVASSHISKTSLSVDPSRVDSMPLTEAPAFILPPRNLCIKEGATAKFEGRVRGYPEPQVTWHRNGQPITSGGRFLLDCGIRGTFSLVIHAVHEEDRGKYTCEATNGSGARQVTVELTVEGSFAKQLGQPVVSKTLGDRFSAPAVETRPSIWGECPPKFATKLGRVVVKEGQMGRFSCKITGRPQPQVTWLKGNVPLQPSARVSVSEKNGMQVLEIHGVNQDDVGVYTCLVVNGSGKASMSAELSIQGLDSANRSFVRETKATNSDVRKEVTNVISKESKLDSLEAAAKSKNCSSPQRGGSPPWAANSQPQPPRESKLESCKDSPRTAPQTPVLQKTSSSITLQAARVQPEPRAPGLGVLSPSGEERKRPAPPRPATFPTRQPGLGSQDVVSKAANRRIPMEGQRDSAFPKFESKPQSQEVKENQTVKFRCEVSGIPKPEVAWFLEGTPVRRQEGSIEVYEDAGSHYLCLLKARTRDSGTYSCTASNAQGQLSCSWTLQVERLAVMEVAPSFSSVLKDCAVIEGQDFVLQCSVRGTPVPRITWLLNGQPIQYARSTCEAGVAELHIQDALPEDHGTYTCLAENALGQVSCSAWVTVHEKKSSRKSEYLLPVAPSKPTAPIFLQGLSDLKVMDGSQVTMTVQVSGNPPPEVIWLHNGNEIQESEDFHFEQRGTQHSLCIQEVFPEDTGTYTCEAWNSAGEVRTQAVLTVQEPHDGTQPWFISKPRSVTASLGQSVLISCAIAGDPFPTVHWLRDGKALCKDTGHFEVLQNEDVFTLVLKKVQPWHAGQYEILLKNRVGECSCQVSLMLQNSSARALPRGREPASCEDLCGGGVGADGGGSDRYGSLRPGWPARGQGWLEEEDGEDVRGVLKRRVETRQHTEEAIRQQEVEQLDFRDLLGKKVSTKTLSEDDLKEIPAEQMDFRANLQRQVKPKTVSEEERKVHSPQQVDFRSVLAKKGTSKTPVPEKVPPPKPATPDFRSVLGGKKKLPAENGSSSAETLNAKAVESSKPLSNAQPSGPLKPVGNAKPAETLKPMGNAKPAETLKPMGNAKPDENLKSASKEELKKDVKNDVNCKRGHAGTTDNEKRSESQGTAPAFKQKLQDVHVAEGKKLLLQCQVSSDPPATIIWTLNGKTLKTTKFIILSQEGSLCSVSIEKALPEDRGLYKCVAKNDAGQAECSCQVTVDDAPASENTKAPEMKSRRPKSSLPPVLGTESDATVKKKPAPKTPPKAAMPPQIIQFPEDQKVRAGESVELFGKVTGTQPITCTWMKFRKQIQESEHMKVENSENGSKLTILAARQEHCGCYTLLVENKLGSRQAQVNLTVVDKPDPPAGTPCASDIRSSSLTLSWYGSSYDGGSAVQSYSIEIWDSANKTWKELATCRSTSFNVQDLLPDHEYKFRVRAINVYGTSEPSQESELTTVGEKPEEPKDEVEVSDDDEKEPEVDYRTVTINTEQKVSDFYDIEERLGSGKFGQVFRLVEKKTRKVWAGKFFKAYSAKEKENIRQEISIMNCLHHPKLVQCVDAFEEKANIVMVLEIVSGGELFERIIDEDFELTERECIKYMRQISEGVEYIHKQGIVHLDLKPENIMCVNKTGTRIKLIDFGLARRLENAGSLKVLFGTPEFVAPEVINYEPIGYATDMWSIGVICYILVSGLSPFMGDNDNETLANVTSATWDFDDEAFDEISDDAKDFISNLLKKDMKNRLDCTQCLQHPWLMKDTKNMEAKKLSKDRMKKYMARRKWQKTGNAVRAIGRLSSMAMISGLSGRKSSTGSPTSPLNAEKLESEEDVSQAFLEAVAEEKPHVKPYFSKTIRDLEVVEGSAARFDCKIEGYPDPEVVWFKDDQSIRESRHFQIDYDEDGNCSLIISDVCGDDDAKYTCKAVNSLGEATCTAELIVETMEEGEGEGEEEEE

FLT1 (human) = FLT1 (human) (UniProt P17948)
[2] = target: STK11 CAB39 STRADA (human) (UniProt Q9Y376+Q7RTN6+Q15831)
EPHB1 (human) = EPHB1 (human) (UniProt P54762)
PRKCZ (human) = PRKCZ (human) (UniProt Q05513)

PAK2 (human), Q13177 [T402E], sequence (Q13177 whole entry T402E, looked up): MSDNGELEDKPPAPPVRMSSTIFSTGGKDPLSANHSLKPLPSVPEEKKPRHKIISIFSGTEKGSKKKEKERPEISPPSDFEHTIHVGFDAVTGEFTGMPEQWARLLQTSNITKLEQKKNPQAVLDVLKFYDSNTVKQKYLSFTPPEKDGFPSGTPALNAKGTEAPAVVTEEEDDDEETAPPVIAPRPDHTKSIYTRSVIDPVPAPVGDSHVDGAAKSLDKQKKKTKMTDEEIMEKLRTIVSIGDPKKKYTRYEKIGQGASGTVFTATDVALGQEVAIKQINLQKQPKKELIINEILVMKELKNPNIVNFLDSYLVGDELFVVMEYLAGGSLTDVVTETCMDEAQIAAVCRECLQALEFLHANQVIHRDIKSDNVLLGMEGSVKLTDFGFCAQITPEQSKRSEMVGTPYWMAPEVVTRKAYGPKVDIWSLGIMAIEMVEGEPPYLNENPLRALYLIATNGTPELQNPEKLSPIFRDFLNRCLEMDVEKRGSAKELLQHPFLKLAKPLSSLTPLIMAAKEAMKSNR
CSNK1D (human), sequence (P48730 whole entry, looked up): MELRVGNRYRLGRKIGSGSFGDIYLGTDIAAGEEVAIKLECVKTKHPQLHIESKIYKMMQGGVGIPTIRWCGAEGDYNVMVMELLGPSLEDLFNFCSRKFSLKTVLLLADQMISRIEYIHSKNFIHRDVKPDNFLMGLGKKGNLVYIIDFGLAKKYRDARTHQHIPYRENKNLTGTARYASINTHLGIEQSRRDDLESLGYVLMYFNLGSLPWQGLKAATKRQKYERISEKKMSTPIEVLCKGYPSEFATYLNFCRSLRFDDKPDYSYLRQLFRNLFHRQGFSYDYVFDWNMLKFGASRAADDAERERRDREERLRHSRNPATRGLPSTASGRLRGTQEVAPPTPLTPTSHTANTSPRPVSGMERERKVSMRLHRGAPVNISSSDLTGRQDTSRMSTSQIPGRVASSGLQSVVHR

Compound `CNc1nc(-c2ccc3c(N)n[nH]c3c2)cc(N2C[C@@H](C(=O)NC3CCCCC3)CC[C@H]2C)n1` has a residual activity (MAPK1 (human); compound 1.0 µM) of 107%, a residual activity (MAPK1 (human); compound 10.0 µM) of 109% and a residual activity ([1]; compound 0.01 µM) of 105%. The residual activity ([1]; compound 0.1 µM) was 119%, the residual activity ([1]; compound 1.0 µM) was 102% and the residual activity ([1]; compound 10.0 µM) was 77%. It also gave a residual activity (EEF2K (human); compound 0.01 µM) of 108%, a residual activity (EEF2K (human); compound 0.1 µM) of 100% and a residual activity (EEF2K (human); compound 1.0 µM) of 105%. It also gave a residual activity (EEF2K (human); compound 10.0 µM) of 100%, a residual activity (MAP2K2 (human); compound 1.0 µM) of 114% and a residual activity (MAP2K2 (human); compound 10.0 µM) of 94%. For the same compound, the residual activity (CSNK1D (human); compound 0.01 µM) was 100%, the residual activity (CSNK1D (human); compound 0.1 µM) was 108% and the residual activity (CSNK1D (human); compound 1.0 µM) was 96%. For the same compound, the residual activity (CSNK1D (human); compound 10.0 µM) was 88%, the residual activity (MAP3K1 (human); compound 1.0 µM) was 87% and the residual activity (MAP3K1 (human); compound 10.0 µM) was 104%. For the same compound, the residual activity (MAPK13 (human); compound 0.01 µM) was 106%, the residual activity (MAPK13 (human); compound 0.1 µM) was 113% and the residual activity (MAPK13 (human); compound 1.0 µM) was 93%. For the same compound, the residual activity (MAPK13 (human); compound 10.0 µM) was 101%, the residual activity (FGFR1 (human); compound 0.01 µM) was 119% and the residual activity (FGFR1 (human); compound 0.1 µM) was 119%. For the same compound, the residual activity (FGFR1 (human); compound 1.0 µM) was 105%, the residual activity (FGFR1 (human); compound 10.0 µM) was 88% and the residual activity (CHEK1 (human); compound 0.01 µM) was 111%. It also gave a residual activity (CHEK1 (human); compound 0.1 µM) of 106%, a residual activity (CHEK1 (human); compound 1.0 µM) of 96% and a residual activity (CHEK1 (human); compound 10.0 µM) of 103%. For the same compound, the residual activity (MELK (human); compound 0.01 µM) was 115%, the residual activity (MELK (human); compound 0.1 µM) was 77% and the residual activity (MELK (human); compound 1.0 µM) was 31%. It also gave a residual activity (MELK (human); compound 10.0 µM) of 22%, a residual activity (GCK (human); compound 0.01 µM) of 109% and a residual activity (GCK (human); compound 0.1 µM) of 116%. For the same compound, the residual activity (GCK (human); compound 1.0 µM) was 97%, the residual activity (GCK (human); compound 10.0 µM) was 86% and the residual activity (SRC (human); compound 0.01 µM) was 101%. It also gave a residual activity (SRC (human); compound 0.1 µM) of 105%, a residual activity (SRC (human); compound 1.0 µM) of 95% and a residual activity (EPHB4 (human); compound 1.0 µM) of 119%. The residual activity (EPHB4 (human); compound 10.0 µM) was 117%, the residual activity (IGF1R (human); compound 0.1 µM) was 115% and the residual activity (IGF1R (human); compound 1.0 µM) was 98%. The residual activity (IGF1R (human); compound 10.0 µM) was 100%, the residual activity (MYLK (human); compound 0.01 µM) was 116% and the residual activity (MYLK (human); compound 0.1 µM) was 113%. It also gave a residual activity (MYLK (human); compound 1.0 µM) of 99%, a residual activity (MYLK (human); compound 10.0 µM) of 62% and a residual activity (FLT1 (human); compound 0.01 µM) of 98%. For the same compound, the residual activity (FLT1 (human); compound 0.1 µM) was 108%, the residual activity (FLT1 (human); compound 1.0 µM) was 89% and the residual activity (FLT1 (human); compound 10.0 µM) was 64%. For the same compound, the residual activity ([2]; compound 0.01 µM) was 104%, the residual activity ([2]; compound 0.1 µM) was 124% and the residual activity ([2]; compound 1.0 µM) was 110%. It also gave a residual activity ([2]; compound 10.0 µM) of 103%, a residual activity (EPHB1 (human); compound 1.0 µM) of 111% and a residual activity (EPHB1 (human); compound 10.0 µM) of 118%. The residual activity (PRKCZ (human); compound 0.01 µM) was 113%, the residual activity (PRKCZ (human); compound 0.1 µM) was 105% and the residual activity (PRKCZ (human); compound 1.0 µM) was 74%. It also gave a residual activity (PRKCZ (human); compound 10.0 µM) of 23%.
